The results in this text go back to US9394561B2, “Cyclic peptide production” (National Research Council of Canada, priority 2011, dated 2016).

Entries after “also recorded” stand apart in the source; their conditions may differ. Square brackets hold non-standard residues; d marks the D form. Ends that are not written are not given here.

One assay relates to S. vaccaria PCY1. Put plainly: In vitro assay of recombinant S. vaccaria PCY1 with wild type and mutant presegetalin substrates, products detected by LC/MS. The assay is classed as biochemical, Saponaria vaccaria. The arrangement: key to CP (cyclic peptide product detected by LC/MS after in vitro assay) / LP (linear peptide product detected by LC/MS after in vitro assay): +=presence; −=absence. The settings on record: for CP (cyclic peptide product detected by LC/MS after in vitro assay) / LP (linear peptide product detected by LC/MS after in vitro assay): substrates tested for cyclization by S. vaccaria PCY1; for cyclic peptide production by S. vaccaria PCY1 (in words) / linear peptide production by S. vaccaria PCY1 (in words): LC/MS and MS/MS. The procedure:
The gene corresponding to S. vaccaria PCY1 was cloned and expressed in E. coli with a His-tag. HisPur Cobalt Resin™ (Thermo Scientific) was used for purification of recombinant PCY1. The purified PCY1 was quantified using BCA method (Pierce; http://http://www.piercenet.com/) with BSA as a calibration standard. The in vitro assay contained 20 mM Tris buffer (pH 8.5), 100 mM NaCl, 5 mM DTT, 0.2 mg BSA, and 1.5 μg of substrates (wild type and mutant presegetalins, procured from Bio Basic Inc with >90% purity) and was initiated by the addition of 0.3 μg of PCY1, in a total reaction volume of 100 μl. The assay was incubated at 30° C. for up to 1 h and stopped by placing reactions in dry ice. The assays were lyophilized, re-suspended in methanol, evaporated and re-suspended in 50:50 v/v methanol/water for LC/MS analysis.
Ion trap ESI+ LC/MS/MS analysis was used to detect production of cyclic peptides using an Agilent 6320 Ion Trap LC/MS system under default Smart Parameter settings. The analyzer and ion optics were adjusted to achieve proper resolution (Agilent Installation Guide #G2440-90105) using the ESI Tuning Mix (Agilent #G2431A). The mass spectrometer scanned from 50 to 2200 mass units at 8100 mass units sec^−1 with an expected peak width of 0.35 atomic mass units. For auto MS/MS, the trap isolation width was 4 atomic mass units. The associated Agilent 1200 LC was fitted with a Zorbax 300 EXTEND-C18 column (150×2.1 mm, 3.5 μm particle size) maintained at 35° C. The binary solvent system consisted of 90:10 v/v water/acetonitrile containing 0.1% formic acid and 0.1% ammonium formate (solvent A) and 10:90 v/v water/acetonitrile containing 0.1% formic acid and 0.1% ammonium formate (solvent B). The separation gradient was 90:10 A/B to 50:50 A/B in 3 ml over 20 min.
In order to characterize substrate specificity of PCY1 and understand the segetalin A biosynthetic mechanism, a total of 44 substrates (Table 3) were tested for the PCY1 activity and the results are briefly summarized in Table 3. The last two columns in Table 3 summarize product type detected by LC/MS after in vitro assays (CP is cyclic peptide and LP is linear peptide, +=presence, −=absence, NA=not applicable). The 44 substrates were classified as follows: • (A) Presegetalin A1 [14,32], a wild type (WT) precursor of segetalin A • (B) Truncated mutants of presegetalin A1[14,32] • (C) Alanine scanning mutants corresponding to variants of the mature segetalin A sequence • (D) Alanine scanning mutants of the C-terminal region of presegetalin A1[14,32] • (E) D-amino acid mutants corresponding to variants of the mature segetalin A sequence • (F) Insertion mutants corresponding to variants of the mature segetalin A sequence • (G) Other A-class and F-class presegetalins • (H) Putative cyclic peptide precursors from Dianthus caryophyllus

In assay [1] the test system is Dianthus superbus PCY1-c250. Put plainly: In vitro assay of recombinant Dianthus superbus PCY1-c250 with presegetalin substrates, LC/MS. The assay is classed as biochemical. From the text:
(§1) To test for activity of the homologues of S. vaccaria PCY1, two cDNAs encoding were cloned from Dianthus superbus (c250 and c1141 contigs) and one from Silene vulgaris (c150 contig) essentially as described for Saponaria vaccaria PCY1 in Example 2. These were named Dianthus superbus Pcy1-c250, Dianthus superbus Pcy1-c1141 and Silene vulgaris Pcy1-c150, Briefly, gene specific forward and reverse primers were used to PCR amplify the aforementioned contigs based on homologue identification in EST collections from Dianthus leaves and Silene roots. The Dianthus superbus (c250 and c1141 contigs) and Silene vulgaris (c150 contig) PCY1 homologues were assayed with 15 μg/mL presegetalin A1[14,32] in vitro as previously described for semi-purified plant extracts to determine whether they can catalyze the production of segetalin A from presegetalin A1[14,32]. The assays were initiated by the addition of 120 ng (c250), or 138 ng (c1141) purified recombinant Dianthus superbus or 4 μg Silene vulgaris Pcy1 respectively, in a total reaction volume of 100 μL. […] Thus, there are additional enzymes in the Caryophyllaceae family, which have the same enzymatic activity as S. vaccaria PCY1.
Dianthus superbus PCY1-c250 was also assayed with the alanine scan mutants and the activities were compared with those of S. vaccaria PCY1.

Assay [2] concerns Dianthus superbus PCY1-c1141. Description: In vitro assay of recombinant Dianthus superbus PCY1-c1141 with presegetalin substrates, LC/MS. It counts as biochemical.
From the text: as §1
Seven mutant peptides containing D-amino acids were synthesized (No. 26 to 32 in Table 3) and tested with S. vaccaria PCY1 under optimized in vitro conditions. In initial experiments, each amino acid corresponding to segetalin A was substituted with its D-amino acid consecutively from position 15 to 19 (No. 26 to 30). Glycine at position 14 is achiral and no substitution was required. […] To test this possibility two peptides were synthesized No. 31 and No. 32 in Table 3. […] The cyclic peptides were detected as diagnostic ions (M+H)^+ and (M+Na)^+ in LC/MS and their presence was further confirmed by MS/MS analysis. […] The cyclic peptide produced from No. 32 has alternating D- and L-forms of amino acids (with the exception of the glycine), which gives it the potential to self-assemble into nanotube under appropriate conditions (Gadhiri 1993).

The test system of assay [3] is Silene vulgaris Pcy1-c150. Put plainly: In vitro assay of recombinant Silene vulgaris PCY1-c150 with presegetalin A1[14,32], LC/MS. The assay is classed as biochemical. The settings on record: 15 μg/mL presegetalin A1[14,32], 4 μg enzyme.
From the text: as §1

Chain of Dianthus superbus PCY1-c1141 (as listed by the source): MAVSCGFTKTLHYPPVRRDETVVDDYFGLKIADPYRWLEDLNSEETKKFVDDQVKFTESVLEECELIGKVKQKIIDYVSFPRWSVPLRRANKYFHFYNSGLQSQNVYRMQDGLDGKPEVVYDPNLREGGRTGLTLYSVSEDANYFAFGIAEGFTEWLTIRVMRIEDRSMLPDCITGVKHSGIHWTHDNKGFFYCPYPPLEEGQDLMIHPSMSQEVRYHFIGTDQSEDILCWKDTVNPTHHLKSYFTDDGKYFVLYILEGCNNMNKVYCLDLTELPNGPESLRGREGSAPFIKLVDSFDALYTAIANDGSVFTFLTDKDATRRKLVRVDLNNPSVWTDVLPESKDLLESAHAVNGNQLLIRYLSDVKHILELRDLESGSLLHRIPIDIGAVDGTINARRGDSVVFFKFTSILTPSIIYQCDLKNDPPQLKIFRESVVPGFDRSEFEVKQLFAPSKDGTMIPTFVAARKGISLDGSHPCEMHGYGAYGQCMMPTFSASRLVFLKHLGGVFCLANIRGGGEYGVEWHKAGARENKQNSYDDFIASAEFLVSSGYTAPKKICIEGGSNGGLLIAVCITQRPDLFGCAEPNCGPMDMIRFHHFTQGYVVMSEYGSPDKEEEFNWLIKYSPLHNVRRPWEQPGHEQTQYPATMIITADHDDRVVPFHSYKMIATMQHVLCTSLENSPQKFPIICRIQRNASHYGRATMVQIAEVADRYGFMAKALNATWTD
Chain of Dianthus superbus PCY1-c250 (as listed by the source): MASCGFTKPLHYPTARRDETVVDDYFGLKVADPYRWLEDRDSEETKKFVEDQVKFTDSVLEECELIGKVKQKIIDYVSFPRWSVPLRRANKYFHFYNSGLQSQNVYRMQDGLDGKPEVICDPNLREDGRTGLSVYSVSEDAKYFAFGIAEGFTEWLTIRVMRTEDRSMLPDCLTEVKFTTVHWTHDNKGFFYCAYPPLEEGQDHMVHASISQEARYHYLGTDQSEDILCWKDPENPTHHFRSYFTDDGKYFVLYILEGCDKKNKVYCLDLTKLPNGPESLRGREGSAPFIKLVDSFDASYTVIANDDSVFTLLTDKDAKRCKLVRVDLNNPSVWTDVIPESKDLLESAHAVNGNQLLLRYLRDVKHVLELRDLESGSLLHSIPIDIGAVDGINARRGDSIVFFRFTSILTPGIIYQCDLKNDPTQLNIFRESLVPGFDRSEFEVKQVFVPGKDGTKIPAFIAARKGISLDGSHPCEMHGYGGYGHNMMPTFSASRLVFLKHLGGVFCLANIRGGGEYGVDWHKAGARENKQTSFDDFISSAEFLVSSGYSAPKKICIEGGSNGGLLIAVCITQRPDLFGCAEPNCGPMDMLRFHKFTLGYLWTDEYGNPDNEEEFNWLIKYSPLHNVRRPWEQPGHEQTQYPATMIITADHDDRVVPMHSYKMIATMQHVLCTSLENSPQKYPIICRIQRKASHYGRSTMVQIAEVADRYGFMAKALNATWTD
Chain of S. vaccaria PCY1 (as listed by the source): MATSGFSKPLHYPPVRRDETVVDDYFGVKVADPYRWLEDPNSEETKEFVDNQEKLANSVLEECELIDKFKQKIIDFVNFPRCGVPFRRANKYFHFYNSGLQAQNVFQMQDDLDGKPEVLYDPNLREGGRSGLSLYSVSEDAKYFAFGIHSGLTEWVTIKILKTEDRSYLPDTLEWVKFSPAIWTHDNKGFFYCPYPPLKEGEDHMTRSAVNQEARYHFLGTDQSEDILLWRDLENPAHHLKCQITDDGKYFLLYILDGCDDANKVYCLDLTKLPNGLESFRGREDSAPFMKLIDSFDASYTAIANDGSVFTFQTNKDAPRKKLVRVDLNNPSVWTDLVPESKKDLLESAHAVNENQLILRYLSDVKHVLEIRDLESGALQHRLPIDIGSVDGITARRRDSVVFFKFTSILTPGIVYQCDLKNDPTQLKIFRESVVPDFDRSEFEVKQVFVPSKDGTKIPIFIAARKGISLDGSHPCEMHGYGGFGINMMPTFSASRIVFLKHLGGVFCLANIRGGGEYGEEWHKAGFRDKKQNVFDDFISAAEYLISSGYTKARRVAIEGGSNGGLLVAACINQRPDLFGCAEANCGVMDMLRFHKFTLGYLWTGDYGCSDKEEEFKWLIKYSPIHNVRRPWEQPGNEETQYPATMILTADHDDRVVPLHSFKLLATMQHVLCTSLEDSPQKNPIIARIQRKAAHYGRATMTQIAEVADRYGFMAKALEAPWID
Chain of Silene vulgaris Pcy1-c150 (as listed by the source): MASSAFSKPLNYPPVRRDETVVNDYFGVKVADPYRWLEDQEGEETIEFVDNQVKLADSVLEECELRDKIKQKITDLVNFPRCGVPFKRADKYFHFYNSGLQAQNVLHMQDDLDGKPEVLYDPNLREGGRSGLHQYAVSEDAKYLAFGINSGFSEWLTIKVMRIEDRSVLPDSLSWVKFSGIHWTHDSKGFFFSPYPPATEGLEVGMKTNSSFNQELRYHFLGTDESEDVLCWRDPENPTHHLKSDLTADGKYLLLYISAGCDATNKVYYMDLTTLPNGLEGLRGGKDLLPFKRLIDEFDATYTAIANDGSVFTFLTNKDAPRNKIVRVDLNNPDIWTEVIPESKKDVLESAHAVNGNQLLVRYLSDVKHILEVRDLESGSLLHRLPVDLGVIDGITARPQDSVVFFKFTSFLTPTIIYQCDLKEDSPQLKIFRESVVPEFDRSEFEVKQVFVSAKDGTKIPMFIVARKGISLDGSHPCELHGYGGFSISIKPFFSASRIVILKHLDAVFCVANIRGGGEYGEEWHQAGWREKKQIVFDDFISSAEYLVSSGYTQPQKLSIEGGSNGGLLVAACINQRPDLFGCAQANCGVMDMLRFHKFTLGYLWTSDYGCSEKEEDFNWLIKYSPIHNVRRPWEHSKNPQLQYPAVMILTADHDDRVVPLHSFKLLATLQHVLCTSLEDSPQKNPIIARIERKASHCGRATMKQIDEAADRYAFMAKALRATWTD

Regarding “11 (GVPVAAFQAKDVENASAPV; Presegetalin A1[14,32] variant aa18 = alanine) [compound 11]”, in the assay on S. vaccaria PCY1, the “CP (cyclic peptide product detected by LC/MS after in vitro assay)” value (“CP” below) is given as “+” and the “LP (linear peptide product detected by LC/MS after in vitro assay)” value (from here on “LP”) is listed as “−”. In assay [1], the “cyclic peptide production by D. superbus PCY1-c250 (in words)” value is “relatively more cyclic peptide than did S. vaccaria PCY1”.

On to “32 (GV[dP]V[dA]AFQAKDVENASAPV) [compound 32]”, for which the “cyclic peptide production by D. superbus PCY1-c1141 (in words)” value in assay [2] was “made cyclic peptides; also recorded: relatively more active; also recorded: higher than the activity of S. vaccaria PCY1”. In the assay on S. vaccaria PCY1, the “cyclic peptide production by S. vaccaria PCY1 (in words)” value is reported as “made cyclic peptides”, the “CP” value was “+” and the “LP” value was “−”.

“31 (GV[dP]VAAFQAKDVENASAPV) [compound 31]”: in assay [2], the “cyclic peptide production by D. superbus PCY1-c1141 (in words)” value is “made cyclic peptides”. For the same substance, in the assay on S. vaccaria PCY1, the “cyclic peptide production by S. vaccaria PCY1 (in words)” value is “made cyclic peptides”, the “CP” value is given as “+” and the “LP” value is “−”.

Regarding “7 (AVPVWAFQAKDVENASAPV; Presegetalin A1[14,32] variant aa14 = alanine) [compound 7]”, in the assay with S. vaccaria PCY1, the “cyclic peptide production by S. vaccaria PCY1 (in words)” value is recorded as “less product”, the “linear peptide production by S. vaccaria PCY1 (in words)” value is reported as “highest amount of linear peptide product”, the “CP” value is recorded as “+” and the “LP” value was “+”. For the same substance, in assay [1], the “cyclic peptide production by D. superbus PCY1-c250 (in words)” value is listed as “no detectable cyclic peptide” and the “linear peptide production by D. superbus PCY1-c250 (in words)” value was “a large amount of linear peptide was detected”.

Take “Presegetalin A1[14,32] (GVPVWAFQAKDVENASAPV; listed as Saponaria vaccaria) [No. 1]”: the “cyclic peptide production by D. superbus PCY1-c1141 (in words)” value in assay [2] is “strong enzymatic activity”. Also, in the assay on S. vaccaria PCY1, the “cyclic peptide production by S. vaccaria PCY1 (in words)” value is given as “showed the formation of segetalin A” and the “linear peptide production by S. vaccaria PCY1 (in words)” value is “linear segetalin A”. The “production of segetalin A by Silene vulgaris c150 polypeptide (in words)” value in assay [3] was “weaker than that of S. vaccaria PCY1”. The “cyclic peptide production by D. superbus PCY1-c250 (in words)” value in assay [1] was “strong enzymatic activity”.

As to “20 (GVPVWAFQAKDVEAASAPV; Presegetalin A1[14,32] N27A) [compound 20]”, in the assay on S. vaccaria PCY1, the “cyclic peptide production by S. vaccaria PCY1 (in words)” value is recorded as “sensitive”, the “CP” value was “+” and the “LP” value is given as “+”.

Consider “41 (FSASYSSKPIQTQVSNGMDNASAPV; Presegetalin F1[14,38]) [compound 41]”, for which, in the assay on S. vaccaria PCY1, the “cyclic peptide production by S. vaccaria PCY1 (in words)” value is “cyclic peptide products were detected from all of them”, the “CP” value is on record as “+” and the “LP” value was “−”.

Take “2 (GVPVWAFQAKDVENAPV; Presegetalin A1[14,30]) [compound 2]”: in the assay with S. vaccaria PCY1, the “linear peptide production by S. vaccaria PCY1 (in words)” value is “almost equivalent to the linear peptide formed from the WT substrate” and the “LP” value is on record as “+”.

As to “15 (GVPVWAFQVKDVENASAPV; Presegetalin A1[14,32] A22V) [compound 15]”, in the assay with S. vaccaria PCY1, the “CP” value is given as “+” and the “LP” value was “+”.

Consider “1 (GVPVWAFQAKDVENASAPV; listed as Saponaria vaccaria) [compound 1]”, for which, in the assay with S. vaccaria PCY1, the “cyclic peptide production by S. vaccaria PCY1 (in words)” value was “segetalin A and the linear form (linear peptide) of segetalin A were produced; also recorded: cyclic peptide products were detected from all of them”; the “CP” value is reported as “+”; the “LP” value is “+”. For the same substance, in the assay on S. vaccaria PCY1 (WT precursor, optimized assay condition), the “PCY1 activity (total amount of segetalin A produced)” value was 3 nmol/mg of protein/min.

Take “23 (GVPVWAFQAKDVENASVPV; Presegetalin A1[14,32] A30V) [compound 23]”: in the assay on S. vaccaria PCY1, the “CP” value is on record as “+” and the “LP” value is on record as “+”.

For “30 (GVPVW[dA]FQAKDVENASAPV) [compound 30]”, in the assay on S. vaccaria PCY1, the “cyclic peptide production by S. vaccaria PCY1 (in words)” value is “neither cyclic peptide nor linear peptide were detected”, the “linear peptide production by S. vaccaria PCY1 (in words)” value is “neither cyclic peptide nor linear peptide were detected”, the “CP” value is recorded as “−” and the “LP” value is given as “−”.

Consider “43 (GPIPFYGFQAKDAENASVPV; - Dianthus Precursor A[14,33]) [compound 43]”, for which, in the assay with S. vaccaria PCY1, the “cyclic peptide production by S. vaccaria PCY1 (in words)” value is “small amount of cyclic peptide production”, the “CP” value is “+” and the “LP” value was “−”.

With “Presegetalin A1[14,32]W18w (GVPV[dW]AFQAKDVENASAPV) [No. 29]”, the “cyclic peptide production by S. vaccaria PCY1 (in words)” value with S. vaccaria PCY1 is listed as “relatively weakly converted to cyclic peptide”.

As for “37 (GLSFAFQAKDAENASSPV; Presegetalin D1[14,31] P20Q) [compound 37]”, in the assay on S. vaccaria PCY1, the “cyclic peptide production by S. vaccaria PCY1 (in words)” value is given as “resulted in a 5 amino acid cyclic peptide product”, the “CP” value is “+” and the “LP” value is recorded as “−”.

In the case of “9 (GVAVWAFQAKDVENASAPV; Presegetalin A1[14,32] variant aa16 = alanine) [compound 9]”, in the assay with S. vaccaria PCY1, the “CP” value is “+” and the “LP” value is on record as “+”.

Consider “3 (GVPVWAFQAKDVENA; Presegetalin A1[14,28]) [compound 3]”, for which, in the assay with S. vaccaria PCY1, the “linear peptide production by S. vaccaria PCY1 (in words)” value is recorded as “almost equivalent to the linear peptide formed from the WT substrate”, the “CP” value is listed as “−” and the “LP” value is “+”.

As for “28 (GVP[dV]WAFQAKDVENASAPV) [compound 28]”, in the assay with S. vaccaria PCY1, the “CP” value is on record as “+” and the “LP” value is “−”.
